Test results published in the NIST ThermoML archive (doi:10.1016/j.fluid.2017.03.021).
± gives the expanded uncertainty stated by the source.

How the values were obtained:
[1] = molar heat capacity at constant pressure; conditions: 101.33 kPa, Liquid, DSC
[2] = 101.33 kPa, Liquid; for speed of sound: Sing-around technique in a fixed-path interferometer; for mass density: Vibrating tube method

CCCCC[n+]1ccn(CCCC)c1.O=S(=O)([N-]S(=O)(=O)C(F)(F)F)C(F)(F)F
Conditions	mass density, [2] [kg/m3]	molar heat capacity at constant pressure, [1] [J/K/mol]	speed of sound, [2] [m/s]
287.15 K	1327.3 ± 9.6	–	1239.6 ± 5
289.15 K	1325.5 ± 9.6	–	1234.8 ± 5
291.15 K	1323.7 ± 9.6	–	1230 ± 5
293.15 K	1321.9 ± 9.5	683.58 ± 26	1225.3 ± 5
294.15 K	–	684.63 ± 27	–
295.15 K	1320.1 ± 9.5	685.3 ± 27	1220.6 ± 5
296.15 K	–	685.96 ± 27	–
297.15 K	1318.3 ± 9.5	686.63 ± 27	1216 ± 5
298.15 K	–	687.34 ± 27	–
299.15 K	1316.5 ± 9.5	687.96 ± 27	1211.3 ± 5
300.15 K	–	688.62 ± 27	–
301.15 K	1314.7 ± 9.4	689.29 ± 27	1206.7 ± 5
302.15 K	–	690 ± 27	–
303.15 K	1312.9 ± 9.4	690.67 ± 27	1202.1 ± 5
304.15 K	–	691.38 ± 27	–
305.15 K	1311.1 ± 9.4	692.05 ± 27	1197.6 ± 5
306.15 K	–	692.76 ± 27	–
307.15 K	1309.4 ± 9.4	693.52 ± 27	1193 ± 5
308.15 K	–	694.28 ± 27	–
309.15 K	1307.6 ± 9.3	694.95 ± 27	1188.5 ± 5
310.15 K	–	695.57 ± 27	–
311.15 K	1305.8 ± 9.3	696.23 ± 27	1184 ± 5
312.15 K	–	697.09 ± 27	–
313.15 K	1304 ± 9.3	697.9 ± 27	1179.6 ± 5
314.15 K	–	698.7 ± 27	–
315.15 K	1302.3 ± 9.2	699.42 ± 27	1175.1 ± 5
316.15 K	–	700.08 ± 27	–
317.15 K	1300.5 ± 9.2	700.84 ± 27	1170.7 ± 5
318.15 K	–	701.65 ± 27	–
319.15 K	1298.8 ± 9.2	702.37 ± 27	1166.3 ± 5
320.15 K	–	703.22 ± 27	–
321.15 K	1297 ± 9.2	703.98 ± 27	1161.8 ± 5
322.15 K	–	704.74 ± 27	–
323.15 K	1295.2 ± 9.1	705.5 ± 27	1157.5 ± 5
324.15 K	–	706.26 ± 27	–
325.15 K	1293.5 ± 9.1	707.07 ± 27	1153.1 ± 5
326.15 K	–	707.83 ± 27	–
327.15 K	1291.7 ± 9.1	708.69 ± 27	1148.7 ± 5
328.15 K	–	709.54 ± 27	–
329.15 K	1290 ± 9.1	710.35 ± 28	1144.4 ± 5
330.15 K	–	711.07 ± 28	–
331.15 K	1288.3 ± 9	711.87 ± 28	1140.1 ± 5
332.15 K	–	712.64 ± 28	–
333.15 K	1286.5 ± 9	713.4 ± 28	1135.8 ± 5
334.15 K	–	714.16 ± 28	–
335.15 K	1284.8 ± 9	714.87 ± 28	1131.5 ± 5
336.15 K	–	715.68 ± 28	–
337.15 K	1283 ± 9	716.44 ± 28	1127.3 ± 5
338.15 K	–	717.2 ± 28	–
339.15 K	1281.3 ± 9	718.01 ± 28	1123 ± 5
340.15 K	–	718.67 ± 28	–
341.15 K	1279.6 ± 8.9	719.43 ± 28	1118.8 ± 5
342.15 K	–	719.96 ± 28	–
343.15 K	1277.8 ± 8.9	720.62 ± 28	1114.7 ± 5
344.15 K	–	721.24 ± 28	–
345.15 K	–	721.86 ± 28	–
346.15 K	–	722.48 ± 28	–
347.15 K	–	723.29 ± 28	–
348.15 K	–	724.47 ± 28	–
